Assay results reported in patent US12618095B2, “Medium for Bacillus cereus group detection” (SHIMADZU DIAGNOSTICS CORPORATION, priority 2020, dated 2026).

Test system: B. cereus
Assay: Test Example 9: concentration of amphotericin B

## C[C@@H]1[C@H](O)[C@@H](C)/C=C/C=C/C=C/C=C/C=C/C=C/C=C/[C@H](O[C@@H]2O[C@H](C)[C@@H](O)[C@H](N)[C@@H]2O)C[C@@H]2O[C@](O)(C[C@@H](O)C[C@@H](O)[C@H](O)CC[C@@H](O)C[C@@H](O)CC(=O)O[C@H]1C)C[C@H](O)[C@H]2C(=O)O [Amphotericin B]
ATCC11778, Amphotericin B 0.1 mg, 24 hours, 10^2 cfu/mL
  Number of colonies: 37
ATCC11778, Amphotericin B 0.1 mg, 24 hours, 10^3 cfu/mL
  Number of colonies: +
ATCC11778, Amphotericin B 0.1 mg, 24 hours, 10^4 cfu/mL
  Number of colonies: +
ATCC11778, Amphotericin B 0.1 mg, 24 hours, 10^5 cfu/mL
  Number of colonies: +
ATCC11778, Amphotericin B 0.1 mg, 44 hours, 10^2 cfu/mL
  Number of colonies: 37
ATCC11778, Amphotericin B 0.1 mg, 44 hours, 10^3 cfu/mL
  Number of colonies: +
ATCC11778, Amphotericin B 0.1 mg, 44 hours, 10^4 cfu/mL
  Number of colonies: +
ATCC11778, Amphotericin B 0.1 mg, 44 hours, 10^5 cfu/mL
  Number of colonies: +
ATCC11778, Amphotericin B 1.0 mg, 24 hours, 10^2 cfu/mL
  Number of colonies: 51
ATCC11778, Amphotericin B 1.0 mg, 24 hours, 10^3 cfu/mL
  Number of colonies: +
ATCC11778, Amphotericin B 1.0 mg, 24 hours, 10^4 cfu/mL
  Number of colonies: +
ATCC11778, Amphotericin B 1.0 mg, 24 hours, 10^5 cfu/mL
  Number of colonies: +
ATCC11778, Amphotericin B 1.0 mg, 44 hours, 10^2 cfu/mL
  Number of colonies: 51
ATCC11778, Amphotericin B 1.0 mg, 44 hours, 10^3 cfu/mL
  Number of colonies: +
ATCC11778, Amphotericin B 1.0 mg, 44 hours, 10^4 cfu/mL
  Number of colonies: +
ATCC11778, Amphotericin B 1.0 mg, 44 hours, 10^5 cfu/mL
  Number of colonies: +
ATCC11778, Amphotericin B 10 mg, 24 hours, 10^2 cfu/mL
  Number of colonies: 49
ATCC11778, Amphotericin B 10 mg, 24 hours, 10^3 cfu/mL
  Number of colonies: +
ATCC11778, Amphotericin B 10 mg, 24 hours, 10^4 cfu/mL
  Number of colonies: +
ATCC11778, Amphotericin B 10 mg, 24 hours, 10^5 cfu/mL
  Number of colonies: +
ATCC11778, Amphotericin B 10 mg, 44 hours, 10^2 cfu/mL
  Number of colonies: 49
ATCC11778, Amphotericin B 10 mg, 44 hours, 10^3 cfu/mL
  Number of colonies: +
ATCC11778, Amphotericin B 10 mg, 44 hours, 10^4 cfu/mL
  Number of colonies: +
ATCC11778, Amphotericin B 10 mg, 44 hours, 10^5 cfu/mL
  Number of colonies: +
ATCC19637, Amphotericin B 0.1 mg, 24 hours, 10^2 cfu/mL
  Number of colonies: 36
ATCC19637, Amphotericin B 0.1 mg, 24 hours, 10^3 cfu/mL
  Number of colonies: +
ATCC19637, Amphotericin B 0.1 mg, 24 hours, 10^4 cfu/mL
  Number of colonies: +
ATCC19637, Amphotericin B 0.1 mg, 24 hours, 10^5 cfu/mL
  Number of colonies: +
ATCC19637, Amphotericin B 0.1 mg, 44 hours, 10^2 cfu/mL
  Number of colonies: 36
ATCC19637, Amphotericin B 0.1 mg, 44 hours, 10^3 cfu/mL
  Number of colonies: +
ATCC19637, Amphotericin B 0.1 mg, 44 hours, 10^4 cfu/mL
  Number of colonies: +
ATCC19637, Amphotericin B 0.1 mg, 44 hours, 10^5 cfu/mL
  Number of colonies: +
ATCC19637, Amphotericin B 1.0 mg, 24 hours, 10^2 cfu/mL
  Number of colonies: 35
ATCC19637, Amphotericin B 1.0 mg, 24 hours, 10^3 cfu/mL
  Number of colonies: +
ATCC19637, Amphotericin B 1.0 mg, 24 hours, 10^4 cfu/mL
  Number of colonies: +
ATCC19637, Amphotericin B 1.0 mg, 24 hours, 10^5 cfu/mL
  Number of colonies: +
ATCC19637, Amphotericin B 1.0 mg, 44 hours, 10^2 cfu/mL
  Number of colonies: 35
ATCC19637, Amphotericin B 1.0 mg, 44 hours, 10^3 cfu/mL
  Number of colonies: +
ATCC19637, Amphotericin B 1.0 mg, 44 hours, 10^4 cfu/mL
  Number of colonies: +
ATCC19637, Amphotericin B 1.0 mg, 44 hours, 10^5 cfu/mL
  Number of colonies: +
ATCC19637, Amphotericin B 10 mg, 24 hours, 10^2 cfu/mL
  Number of colonies: 39
ATCC19637, Amphotericin B 10 mg, 24 hours, 10^3 cfu/mL
  Number of colonies: +
ATCC19637, Amphotericin B 10 mg, 24 hours, 10^4 cfu/mL
  Number of colonies: +
ATCC19637, Amphotericin B 10 mg, 24 hours, 10^5 cfu/mL
  Number of colonies: +
ATCC19637, Amphotericin B 10 mg, 44 hours, 10^2 cfu/mL
  Number of colonies: 39
ATCC19637, Amphotericin B 10 mg, 44 hours, 10^3 cfu/mL
  Number of colonies: +
ATCC19637, Amphotericin B 10 mg, 44 hours, 10^4 cfu/mL
  Number of colonies: +
ATCC19637, Amphotericin B 10 mg, 44 hours, 10^5 cfu/mL
  Number of colonies: +
